Source: patent publication US20240041813A1, “VERY-LONG-CHAIN POLYUNSATURATED FATTY ACIDS, ELOVANOID HYDROXYLATED DERIVATIVES, AND METHODS OF USE” (priority 2020, published 2024)
Entries after “also recorded” stand apart in the source; their conditions may differ.

What was measured:
Cdkn2a (p16INK4a) = experiment: HCEC challenged with IFNγ: Cdkn2a gene expression; format: cell-based, human; conditions: IFNγ 100 ng/ml
Excerpt: All experiments with human corneal epithelial cells were approved by the Institutional Review Board of LSUHNO and conducted in accordance with NIH guidelines. HCEC were kept frozen in the laboratory at passage 2544. Cells were maintained in keratinocyte growth (KGM) medium containing the keratinocyte basal medium (KBM) (Lonza: CC-3101) supplemented with bovine pituitary extract (BPE), hEGF, Insulin, Hydrocortisone and Gentamicin Sulfate-Amphotericin (GA-1000) (Lonza, Cat. CC-4131). For all experiments, cells were seeded at 30,000 cells/cm2.
For screening the stimulation of receptor ACE2 by cytokines, the HCEC were cultured with KGM until 50-60% confluence. Then, changed to KBM containing IL-1β, -2, -6 and 8, IFN-α, -ε, and -γ or TNFα at 1, 10 or 100 ng/ml. The cells were harvested after 6 hours and analyze for the gene expression of Ace2. In other experiments, HCEC were stimulated with IFNγ, and thereafter, lipid mediators were added. For the Alexa 594-conjugated RBD binding, IFNγ was used as a cytokine trigger. At 12 hours after cytokine exposure and lipid mediator treatments, […] of labeled RBD was added to the medium. The evaluation of RBD binding was conducted 24 hours after.
Quantitative PCR was performed with the Biomark HD system (Fluidigm, San Francisco, CA, USA). Briefly, 200 ng of RNA was reverse-transcribed using iScript Reverse Transcription Supermix (Bio-Rad), and the cDNA was pre-amplified using the PreAmp Master Mix (PN 100-5580; Fluidigm). The cDNA was then subjected to Exonuclease I treatment and diluted 5 times in TE Buffer. The qPCR reaction mixture and primer reaction mixture were made and loaded into the Biomark 96.96 IFC™ (Integrated Fluidic Circuit). The enzyme reaction was mixed using Juno™ Controller (Fluidigm) and run using the cycling program of (i) 70° C. for 40 minutes followed by 60° C. for 30 seconds, (ii) hot start for 1 minute at 95° C., (iii) 30 cycles of denaturation at 96° C. for 5 seconds, and annealing at 60° C. for 20 seconds, and (iv) melting curves between 60° C. and 95° C. with 1° C. increments/3 seconds. The Ct value of target genes was normalized to the house-keeping genes Gapdh, Hprt1, and Tfrc before normalized to the vehicle group. Relative fold changes from the ΔΔCT calculation was used to make the graph.

injured rat cornea = experiment: Rat cornea alkali burn: corneal RNA-seq, cytokine storm, NFkB/inflammation, senescence, integrin and protease genes; format: in vivo
Experimental: The rats were anesthetized by intraperitoneal injection of Ketamine (50-100 mg/kg) plus xylazine (5-10 mg/kg). A 4 mm diameter filter paper soaked in 1 N NaOH was placed on the central cornea of the right eye for 45 seconds, and then the eye was thoroughly washed with […] of saline. After injury, the rats were randomly divided into five treatment groups: vehicle; lipoxin A4 (LXA4) from Cayman Chemical (Ann Arbor, MI, USA); R,R Resolvin D6 isomer (RvD6i), R,R neuroprotection D (NPD1), and elovanoid (ELV)-N32. All lipid solutions were prepared at the final concentration of […] using PBS with the minimal contamination of ethanol by evaporating the ethanol and immediately dissolve the lipids in PBS, then vortex well for 2 min. Topical administration (20 μl) was done 3×/day for 14 days. The experiments were double-blinded with the lipid mediators coded during the whole experiments. At the end of the study, when all data was collected, the code was opened.
Injured corneas (n=5/condition) were harvested and homogenized with TRIzol (Thermo Fisher Scientific) on ice with a glass Dounce homogenizer. RNA sequencing was performed as described^14. Briefly, after mRNA extraction and determination of purity, 8 ng of total RNA was reverse transcribed, and total cDNAs were amplified using ISPCR primer, and the library was made with the Nextera XT DNA library preparation kit (Illumina, San Diego, CA, USA). The libraries were pooled with the same molarity and sequenced using the NextSeq 500/550 High Output Kit v2 (75 cycles, Illumina). After demultiplexing, RNA-seq data were aligned to the Rattus Norvegicus reference genome (.ensembl.org/pub/release-98/fasta/rattus_norvegicus/dna/) using the Subread package v2.0.1 alignment function39. The BAM files for sequencing data alignment were counted using featureCounts function of Subread tool^40 using the macOS Catalina. The raw count data were subjected to differential gene expression analysis using DESeq2 package for R^41 with the vehicle group as reference. The adjusted p-values were named as the false discover rate (FDR).

[1] = rat cornea, RNA-seq 14 days after injury

CC/C=C\CC(O)\C=C/C=C/C=C/C(O)C/C=C\C/C=C\CCCCCCCCCCCCC(=O)O [ELV-N32, (14Z,17Z,20R,21E,23E,25Z,27S,29Z)-20,27-dihydroxydo-triaconta-14,17,21,23,25,29-hexaenoic acid]
Cdkn2a activation (Cdkn2a (p16INK4a)): decrease | Furin expression (injured rat cornea; cornea injury model (FIG. 57)): remarkably decreases | 51 injury-upregulated genes (cytokines, SASP, NFkB inflammatory) (injured rat cornea; [1]): most are inhibited | Il6 and Vegfa expression (injured rat cornea; [1]): reduced | integrin gene expression (Itga5 and Itgb 1) (injured rat cornea; [1]): significantly decreased; also recorded: decrease | transcriptomic profile in PCA plot relative to control cornea (injured rat cornea; [1]): nearest to the normal cornea | Cdkn2a gene expression (p16INK4a) (injured rat cornea; rat cornea, RNA-seq normalized counts, 14 days after injury): decrease
